Measured values published in patent publication US20040235759A1, “Use of azalide antibiotic compositions for treating or preventing a bacterial or protozoal infection in mammals” (Pfizer Inc, priority 2000, published 2004).

Assays:
[1] = tested on: Eimeria bovis, Eimeria aubumenis and Eimeria zuernii coccidia oocysts; experiment: Calves challenged with a coccidia challenge culture (Example 9); format: in vivo
Text: Sixty naive calves weighing approximately 110-125 kg were purchased from local dairies, weighed, identified by ear tag, and observed for general health assessments. Animals considered physically abnormal, undersized or moribund on arrival were excluded from the study. Calves were housed in five holding pens (12 animals/pen). Calves were held for 7 days prior to challenge in order to acclimate them to the facility. Prior to challenge, calves were excluded from the study at the discretion of the investigator. On days −6, −4 and −2 pre-challenge, fecal samples were obtained for semi-quantitative oocyst counts. On day −4 pre-challenge, oocysts, if present, were speciated.
On day 8 post-arrival (study day 0), calves were inoculated orally with the Eimeria culture. Beginning on day 1, temperatures were determined and recorded at approximately the same time each day for the duration of the study. Attitude, hydration and fecal consistency scores were evaluated daily. Post-challenge, fecal samples were collected on days 2, 4, 6, 8 and 10. Oocysts were speciated on day 10 post-challenge. On day 10 post-challenge, fifty animals were randomly allotted to one of five treatment groups using a randomized block allotment. Treatments were equally represented in each pen. Animals were injected subcutaneously with a single dose of one of the following solutions: (1) about 4 mL of sterile 0.9% sodium chloride (saline); (2) about 4 mL of 300 mg/mL MICOTIL at a dose of 10 mg/kg of body weight; (3) about 6 mL of the pharmaceutical composition at a dose of 5 mg/kg of body weight; (4) about 3 mL of the pharmaceutical composition at a dose of 2.5 mg/kg of body weight; or animals were drenched dosed orally with (5) about 2 oz. of amprolium in a 9.6% oral solution at a dose of 10 mg/kg of body weight. Only amprolium was re-administered on each of the following four days. All other treatments were given in a single dose injection. Fecal samples were examined semi-quantitatively post-treatment for shedding of coccidia oocysts on days 12, 14, 16 and 18. Beginning on day 19 and continuing through day 28, daily fecal samples were evaluated for semi-quantitative counts. Speciation of shed oocysts was performed on days 19-21, 23, 26 and 28. Calves that died during the course of the study or that were euthanized due to a moribund condition associated with clinical coccidiosis were counted as mortalities. Mortalities were necropsied and gross findings were recorded. At the termination of the study on day 28, all remaining animals were weighed, euthanized and examined post-mortem.
Assessment of drug efficacy was determined based upon analysis of mean daily clinical scores, temperature and oocyst shedding. Differences in clinical scores and temperature between different treatments were evaluated by repeated measures ANOVA. Differences in weight gain were determined by factorial ANOVA. Comparisons of mortality rates and oocyst shedding between treatments was performed using Chi-Square analysis and Fisher's Exact test.

[2] = Equilibration of N-(n-propyl) isomer I and isomer II in heated aqueous acid solution, HPLC (Example 2, Table 1); format: physicochemical; settings: N-(n-propyl) isomer I prior to equilibration, for comparison
Text: The equilibrium ratio of N-(n-propyl) isomer I and N-(n-propyl) isomer II (about 90%±4% to about 10%±4%, respectively) was consistent for all experiments. […] Without being bound by any theory, lower equilibration temperatures or lower pH values generally result in substantially longer equilibration times. Equilibration time can also depend on, inter alia, the concentration of starting material, and the type and concentration of the acid used. N-(n-propyl) isomer I at a concentration of up to about 300 mg per mL of composition was heated to a temperature of about 40° C. to about 80° C. in the presence of one or more acids at a concentration of about 0.2 mmol to about 1.0 mmol per mL of mixture and with a sufficient quantity of hydrochloric acid to achieve a pH of about 6.5 to about 7.5 for up to about 20 hours to produce an equilibrium mixture of isomers that is about 95%-98% pure. Equilibration kinetic parameters and impurity levels for equilibration of N-(n-propyl) isomer I and N-(n-propyl) isomer II were determined as a function of pH, equilibration temperature, type of acid, and N-(n-propyl) isomer I concentration and are listed in Table 1. […]
Equilibrium mixtures of isomers were prepared and assayed as follows. […] Where 0.1 M citric or tartaric acid was used, hydrochloric acid was also added in a quantity sufficient to obtain the pH listed in column 2. […]

[3] = tested on: Actinobacillus pleuropneumoniae; experiment: Pigs at a high risk for developing an Actinobacillus pleuropneumoniae infection, seeder-pig exposure (Example 8); format: in vivo
Text: One hundred and thirty clinically healthy pigs having an average body weight of approximately 10 kg were purchased, identified with an ear tag and acclimated to the study site 2 days before the study began. On day −1, all animals were weighed and 100 animals were selected for consistency of body weight (about 10 kg) and lack of signs of clinical abnormalities. Selected animals (20 per treatment) were randomly assigned to treatment and sorted into individual pens. A group of 25 additional animals were randomly assigned as seeder pigs (5 per treatment). […] Temperatures and illness scores were recorded daily. […] An estimate of the percentage of affected lung tissue was determined and recorded. […]
(§1) Assessment of efficacy was determined based upon comparison of mean daily illness scores, temperatures and lung-lesion scores. Differences between treatments for mean daily rectal temperatures and illness scores were evaluated by a repeated-measures analysis of variance. […]

[4] = tested on: Pasteurella multocida; experiment: Therapeutic efficacy in swine infected with Pasteurella multocida (Example 5); format: in vivo; settings: pigs, P. multocida challenge, 1.25 mg/kg intramuscular
Text: By Apotency-actual@ number, as used herein, is meant the actual mg per mL of the substantially pure mixture or equilibrium mixture of N-(n-propyl) isomer I and N-(n-propyl) isomer II present in the pharmaceutical composition.
Fifty clinically normal and healthy pigs having a consistent body weight of approximately 10 kg were selected from a pool of 60 animals. Selected animals (10 per treatment) were randomly assigned to treatment and sorted into pens accordingly. On day 0, each animal was inoculated endotracheally with 25 mL of Pasteurella multocida challenge culture. […] Temperatures and illness scores were recorded 6 hours post-challenge and once daily beginning at 24 hours post-challenge. […] An estimate of the percentage of affected lung tissue was determined and recorded. […]
as §1, with “repeated measures” for “repeated-measures”, “variance. Differences between mean lung-lesion scores for each treatment were evaluated using a factorial analysis of variance procedure.” for “variance.”

[5] = amprolium, MICOTIL, or pharmaceutical composition at either dose level

With CCCc1ncc(C[n+]2ccccc2C)c(N)n1 [Amprolium, amprolium] the “21-day Average Daily Weight Gain” value ([1]; 10 mg/kg oral drench from day 10 post-challenge, re-administered on each of the following four days) was 0.60 kg, the “mean daily hydration scores compared to the saline treated calves” value ([1]; amprolium 10 mg/kg oral) was “statistically significant reductions (p<0.05)” and the “mean daily attitude scores compared to the saline controls” value [1, 5] was “significant reductions (p<0.05)”. For the same molecule, the “mean daily fecal consistency scores compared to the saline treated calves” value [1, 5] was “statistically significant reductions (p<0.05)” and the “oocyst shedding compared to the saline controls” value ([1]; days 19-28 post-challenge) was “decreased”.
With CCCNC[C@]1(O)[C@H](C)O[C@@H](O[C@H]2[C@H](C)[C@@H](O[C@@H]3O[C@H](C)C[C@H](N(C)C)[C@H]3O)[C@](C)(O)C[C@@H](C)CN[C@H](C)[C@@H](O)[C@](C)(O)[C@@H](CC)OC(=O)[C@@H]2C)C[C@@]1(C)OC [DS] the “% Equilibrium mixture of isomers” value [2] was 98.39% and the “% Impurities” value [2] was 1.61%.
For CN1C[C@@H]2C[C@H]1CN2c1cc2c(cc1F)c(=O)c(C(=O)O)cn2C1CC1 [Danofloxacin, danofloxacin], the “Mean Lung-lesion Score” value ([3]; pigs exposed to A. pleuropneumoniae seeder pigs, 1.25 mg/kg intramuscular, re-administered on each of the following two days) was 4.8%, the “mean daily illness scores in the saline-treated pigs compared to treated animals” value ([3]; pigs, danofloxacin 1.25 mg/kg x3, pharmaceutical composition 2.5, 5, 10 mg/kg) was “Statistically significant (p<0.05) elevations” and the “Mean Lung Lesion Score (%)” value ([4]; re-administered on each of the following two days) was 1.9%. For the same molecule, the “mean daily illness scores” value ([4]; three doses, saline about 3) was “about 2”.
